Data as given in patent publication US11679097B2, “Combination product containing limonoid compound and biguanide compound” (ZHEJIANG YANGSHENGTANG INSTITUTE OF NATURAL MEDICATION CO., …, priority 2017, dated 2023).

Columns and labels:
Assay type in all cases: in vivo
[1] = tested on: ICR mice; assay: Body weight, triglycerides and total cholesterol in obesity mouse model (Example 6); conditions: high-fat feed ICR mice, single administration 0.1 g/kg per day by gavage, two weeks
From the text: Effects of a Limonoid Compound, Metformin or a Combination Thereof on Body Weight, Triglycerides, and Total Cholesterol in an Obesity Mouse Model
In this example, ICR mice were used to complete the experiment for evaluation of lipid lowering and weight loss in animals (body weight, serum cholesterol, and serum triglycerides).
In this example, the limonoid compound was nomilin, and a metformin single administration group, nomilin single administration group, and metformin/nomilin combination administration groups (dose A and B groups) were set, respectively.
Conditions of experimental feeding: ICR mice, purchased from the Animal Center of Zhejiang Academy of Medical Sciences, half male and half female, body weight (20±2 g), fed with basic feed provided by the Animal Center of Zhejiang Medical Academy. It should be noted that the conditions for raising the mice were as follows: the temperature was 23±1° C., the humidity was 55±10%, the lights were turned on between 7 am and 7 pm (the lights were turned off at other time), and the mice were allowed to access to water and feed freely. The daily feeding and management of the animals were under the responsibility of the animal security department, which provided the animals with sufficient padding and fresh drinking water daily.
The ICR mice were randomly divided into the normal group and the high-fat feed group, according to body weight. The normal group was fed with ordinary feed from the beginning to the end of the experiment.
Gavage dose: nomilin at a dose of 0.1 g/kg was gavaged per day for the nomilin group, metformin at a dose of 0.1 g/kg was gavaged per day for the metformin group, nomilin at a dose of 0.05 g/kg and metformin at a dose of 0.05 g/kg were simultaneously gavaged per day for the combination dose group A, nomilin at a dose of 0.1 g/kg and metformin at a dose of 0.1 g/kg were simultaneously gavaged per day for the combination dose group B, the gavage volume was 10 mL/kg, and the normal group and the model group were administrated with 10 mL/kg of distilled water. Two weeks later, the mice were weighed, blood sampled from orbital cavity, measured to determine serum total cholesterol and triglyceride levels, and the average values of each group were obtained. SPSS 16.0 software was used for statistical analysis. The data were expressed as mean and standard deviation. The data before and after were analyzed by t-test, and P<0.05 was considered statistically significant.

[2] = tested on: db/db mice; assay: Blood glucose and insulin in mouse model of type II diabetes (Example 4); conditions: single administration 0.2 g/kg per day by gavage, two weeks; for Insulin: serum, Elisa
From the text: Effects of a Limonoid Compound, Metformin or a Combination Thereof on Blood Glucose and Insulin in a Mouse Model of Type II Diabetes
In the present embodiment, the limonoid compound selected nomilin, deacetylnomilin, nomilin acid, deactylnomilin 17-β-D-glucopyranoside, and a nomilin single administration group, deacetylnomilin single administration group, nomilin acid single administered group, deactylnomilin 17-β-D-glucopyranoside single administration group, and combination thereof with metformin administration groups were set, respectively.
Conditions for experimental feeding: as type II diabetes model mice, 6-week-old SPF-grade db/db mice were purchased from the Nanjing Model Biology Institute, and subjected to experimental feeding after 7 days of preliminary feeding. It should be noted that the conditions for raising the mice were as follows: the temperature was 23±1° C., the humidity was 55±10%, the lights were turned on between 7 am and 7 pm (the lights were turned off at other time), and the mice were allowed to access to water and feed freely. The experimental feed was mouse growth-stable feed (GB M2118), and the daily feeding and management of the animals were under the responsibility of the animal security department, which provided the animals with sufficient padding and fresh drinking water daily.
Experimental grouping: male db/db mice (20±2 g) were selected, 18 male mice in each group were tested, and drinking bottles were sterilized weekly. The experimental groups included the normal control group (db/m, n=18), the model group (db/db, n=18), the nomilin group (db/db, n=18), the deacetylnomilin group (db/db, n=18), the nomilin acid group (db/db, n=18), the deactylnomilin 17-β-D-glucopyranoside group (db/db, n=18), the metformin group (db/db, n=18), the nomilin/metformin combination group (db/db, n=18), the deacetylnomilin/metformin combination group (db/db, n=18), the nomilin acid/metformin combination group (db/db, n=18), the deactylnomilin 17-β-D-glucopyranoside/combination group (db/db, n=18).
Gavage doses: nomilin at a dose of 0.2 g/kg was gavaged per day for the nomilin group, deacetylnomilin at a dose of 0.2 g/kg was gavaged per day for the deacetylnomilin group, nomilin acid at a dose of 0.2 g/kg was gavaged per day for the nomilin acid group, deacetylnomilin […] at a dose of 0.2 g/kg was gavaged per day for the deactylnomilin glucopyranoside group, metformin at a dose of 0.2 g/kg was gavaged per day for the metformin group, nomilin at a dose of 0.1 g/kg and metformin at a dose of 0.1 g/kg were simultaneously gavaged per day for the nomilin/metformin combination group, nomilin acid at a dose of 0.1 g/kg and metformin at a dose of 0.1 g/kg were simultaneously gavaged per day for the nomilin acid/metformin combination group, deacetylnomilin at a dose of 0.1 g/kg and metformin at a dose of 0.1 g/kg were simultaneously gavaged per day for the deacetylnomilin/metformin combination group, deactylnomilin 17-β-D-glucopyranoside at a dose of 0.1 g/kg and metformin at a dose of 0.1 g/kg were simultaneously gavaged per day for the deactylnomilin 17-β-D-glucopyranoside/metformin combination group, the gavage volume was 10 mL/kg, and the normal group and the model group were administrated with 10 mL/kg of distilled water. Two weeks later, the blood glucose values were measured by tail trimming method (Johnson's blood glucose meter) 1 h after the last administration, and serum insulin levels were measured with blood collected from orbital cavity by enzyme-linked immunosorbent assay (Elisa), and the average of each group was obtained. SPSS 16.0 software was used for statistical analysis. The data were expressed as mean and standard deviation. The data before and after were analyzed by t-test, and P<0.05 was considered statistically significant.

[3] = tested on: STZ mice; assay: Blood glucose in mouse pancreatic islet β-cell injury model (Example 1); conditions: STZ ICR mice; single administration 0.02 g/kg per day by gavage, two weeks; 1 h after last administration
From the text: Effects of a Limonoid Compound, Metformin or a Combination Thereof on Blood Glucose in a Mouse Pancreatic Islet β-Cell Injury Model In this example, a mouse pancreatic islet β-cell injury model was established by modeling ICR mice with streptozotocin (STZ) (referred to the prior art literature: Li Nan et al., Protective effect of pine pollen on kidney damage in diabetic nephropathy mice, Science and Technology Review, 2014, 32 (4/5): 95-99), and used to complete the evaluation of hypoglycemic effect in animals (this model could simulate pancreatic islet β-cell damage state of type I and type II diabetics). […] Conditions of experimental feeding: ICR mice (20±2 g), aged 6 weeks, purchased from Zhejiang Academy of Medical Sciences, and subjected to experimental feeding after 7 days of preliminary feeding. […] The experimental feed was mouse growth-stable feed (GB […]), and the daily feeding and management of the animals were under the responsibility of the animal security department, which provided the animals with sufficient padding and fresh drinking water daily. Experimental grouping: 15 male mice were randomly selected as the normal control group. […] Gavage doses: the gavage dose was 0.02 g/kg per day for the limonin group, the gavage dose was 0.02 g/kg per day for the isolimonic acid group, the gavage dose was 0.02 g/kg per day for the limonin 17-β-D-glucopyranoside group, the gavage dose of metformin was 0.02 g/kg per day for the metformin group, limonin at a dose of 0.01 g/kg and metformin at a dose of 0.01 g/kg were simultaneously gavaged per day for the limonin/metformin combination group, isolimonic acid at a dose of 0.01 g/kg and metformin at a dose of 0.01 g/kg were simultaneously gavaged per day for the isolimonic acid/metformin combination group, limonin 17-β-D-glucopyranoside at a dose of 0.01 g/kg and metformin at a dose of 0.01 g/kg were simultaneously gavaged per day for the limonin 17-β-D-glucopyranoside/metformin combination group, isolimonic acid 17-β-D-glucopyranoside at a dose of 0.01 g/kg and metformin at a dose of 0.01 g/kg were simultaneously gavaged per day for the isolimonic acid 17-β-D-glucopyranoside/metformin combination group, the gavage volume was 10 mL/kg, and the normal group and the model group were administrated with 10 mL/kg of distilled water. […] SPSS 16.0 software was used for statistical analysis. The data were expressed as mean and standard deviation. The data before and after were analyzed by t-test, and P<0.05 was considered statistically significant.

[4] = tested on: db/db mice; assay: Blood glucose and leptin in mouse model of type II diabetes (Example 2); conditions: single administration 0.04 g/kg per day by gavage, two weeks; for Leptin: serum, Elisa; for Blood glucose value: 1 h after last administration
From the text: Effects of a Limonoid Compound, Metformin or a Combination Thereof on Blood Glucose and Leptin in a Mouse Model of Type II Diabetes In the present example, db/db mice (line name BKS.Cg-Dock7^m+/+ Lepr^db/Nju) were used to perform hypoglycemic efficacy evaluation test of animals (blood glucose level and leptin). […] Conditions for experimental feeding: as type II diabetes model mice, 6-week-old SPF-grade db/db mice were purchased from the Nanjing Model Biology Institute, and subjected to experimental feeding after 7 days of preliminary feeding. […] The experimental feed was mouse growth-stable feed (GB […]), and the daily feeding and management of the animals were under the responsibility of the animal security department, which provided the animals with sufficient padding and fresh drinking water daily. Experimental grouping: male db/db mice (20±2 g) were selected, and 18 male mice in each group were tested. […] Gavage doses: obacunone at a dose of 0.04 g/kg was gavaged per day for the obacunone group, isoobacunoic acid at a dose of 0.04 g/kg was gavaged per day for the isoobacunoic acid group, obacunone 17-β-D-glucopynoside at a dose of 0.04 g/kg was gavaged per day for the obacunone 17-β-D-glucopynoside group, metformin at a dose of 0.04 g/kg was gavaged per day for the metformin group, obacunone at a dose of 0.02 g/kg and metformin at a dose of 0.02 g/kg were simultaneously gavaged per day for the obacunone/metformin combination group, isoobacunoic acid at a dose of 0.02 g/kg and metformin at a dose of 0.02 g/kg were simultaneously gavaged per day for the isoobacunoic acid/metformin combination group, obacunone 17-β-D-glucopynoside at a dose of 0.02 g/kg and metformin at a dose of 0.02 g/kg were simultaneously gavaged per day for the obacunone 17-β-D-glucopynoside/metformin combination group, the gavage volume was 10 mL/kg, and the normal group and the model group were administrated with 10 mL/kg of distilled water. […] The data were expressed as mean and standard deviation. The data before and after were analyzed by t-test, and P<0.05 was considered statistically significant.

Compound	Blood glucose value [3]	Leptin [4]	Blood glucose value [4]	further results
CC(=O)O[C@H]1CC(=O)OC(C)(C)[C@@H]2CC(=O)[C@]3(C)[C@H](CC[C@@]4(C)[C@H](c5ccoc5)OC(=O)[C@H]5O[C@]543)[C@@]12C [Nomilin, nomilin]	–	–	–	Body weight gaining rate [1]: 6.17%; Total cholesterol ([1]; serum): 3.09 ± 0.16 mmol/L; Triglycerides ([1]; serum): 1.08 ± 0.33 mmol/L; Insulin [2]: 8.82 ± 3.42 pg/mL
isolimonic acid 17-β-D-glucopyranoside	17.9 ± 2.8 mmol/L	–	–	–
CC1(C)O[C@H]2CC(=O)OC[C@]23[C@H]2CC[C@@](C)([C@@H](O[C@@H]4O[C@H](CO)[C@@H](O)[C@H](O)[C@H]4O)c4ccoc4)[C@@]4(O[C@@H]4C(=O)O)[C@]2(C)C(=O)C[C@@H]13 [Limonin 17-β-D-glucopyranoside, limonin 17-β-D-glucopyranoside]	18.9 ± 2.2 mmol/L	–	–	–
isolimonic acid	18.2 ± 3.1 mmol/L	–	–	–
CC1(C)OC(=O)C[C@H](O)[C@]2(C)[C@H]3CC[C@@]4(C)[C@H](c5ccoc5)OC(=O)[C@H]5O[C@]54[C@]3(C)C(=O)C[C@@H]12 [deacetylnomilin]	–	–	–	Insulin [2]: 8.59 ± 2.61 pg/mL
nomilin acid	–	–	–	Blood glucose value ([2]; 1 h after last administration): 11.0 ± 4.1 mmol/L
obacunone 17-β-D-glucopynoside	–	28.55 ± 4.00 pg/mL	13.67 ± 2.9 mmol/L	–
CC1(C)O[C@H]2CC(=O)OC[C@]23[C@H]2CC[C@@]4(C)[C@H](c5ccoc5)OC(=O)[C@H]5O[C@]54[C@]2(C)C(=O)C[C@@H]13 [Limonin, limonin]	19.5 ± 1.8 mmol/L	–	–	–
CC1(C)OC(=O)C=C[C@]2(C)[C@H]3CC[C@@]4(C)[C@H](c5ccoc5)OC(=O)[C@H]5O[C@]54[C@]3(C)C(=O)C[C@@H]12 [Obacunone, obacunone]	–	25.99 ± 3.92 pg/mL	12.71 ± 2.8 mmol/L	–
CC1(C)O[C@@H](CC(=O)O)[C@]2(C)[C@H]3CC[C@@]4(C)[C@H](c5ccoc5)OC(=O)[C@H]5O[C@]54[C@]3(C)C(=O)C[C@@H]12 [Isoobacunoic acid, isoobacunoic acid]	–	27.68 ± 3.25 pg/mL	14.66 ± 3.1 mmol/L	–
